Results reported in US12365675B2, “Stable heavy isotopes in amide functional groups and uses thereof” (RISEN (SUZHOU) PHARMA TECH CO., LTD., priority 2020, dated 2025).

Columns and labels:
[1] = Pharmacokinetic studies in beagle dogs, single oral dose; assay type: in vivo; conditions: for CLz/F: single oral dose 2.5 mg/kg each, co-administered, plasma
Description: Male and female beagle dogs (n=4; 2 males and 2 females) were used in the study. A single oral dose of Alpelisib (2.5 mg/kg) and Compound 1 (^18O1-Alpelisib) (2.5 mg/kg) were co-administered (at a total dose of 5 mg/kg) in DMSO and 0.5% carboxymethyl cellulose sodium (CMC-Na) aqueous solution (5:95, v/v). Blood samples were collected for analysis of Alpelisib and ^18O1-Alpelisib at 0.25, 0.5, 1, 1.5, 2, 3, 4, 6, 8, 10, 12 and 24 h. In FIG. 4, lines labelled with -∘- and -Δ- represent the plasma concentrations of Alpelisib-^18O1 and Alpelisib, respectively, following oral administration of the same dose of Alpelisib-^18O1 and Alpelisib to the animals.

[2] = Pharmacokinetic studies in Sprague Dawley (SD) rats, oral gavage; assay type: in vivo; conditions: both doses tested (2.5 and 0.322 mg/kg), greatest effect at low dose
Description: (a) SD rats, six in a group (n=6), were grouped randomly. Compound 1 (Alpelisib-^18O1) and Alpelisib were mixed and adjusted to 1:1 molar ratio in dosing solution (1.25 mg/mL); and the dosing solution was administered to the animals, via oral gavage, at a dose level of 2.5 mg/kg. Blood samples were collected at pre-set time points following drug administration, at 0.167, 0.5, 1, 2, 3, 4, 6, 8, and 24 hours (h). The blood samples were converted to plasma samples using standard techniques, and the latter samples were analyzed to determine the concentrations of Compound 1 and Alpelisib. In FIG. 1a, lines labelled with -∘- and --Δ-- represent the plasma concentrations of Alpelisib-^18O1 and Alpelisib, respectively, following oral administration of the same molar dose of Alpelisib-^18O1 and Alpelisib to the animals.
(b) Similarly, Compound 1 (Alpelisib-^18O1) and Alpelisib were administered to the animals (SD rats, n=4), via oral gavage, at a low dose (dose level of 0.322 mg/kg). Blood samples were collected at pre-set time points following drug administration, at 0.167, 0.5, 1, 2, 4, 6, 8, 10 and 24 hours (h). The blood samples were converted to plasma samples using standard techniques, and the latter samples were analyzed to determine the concentrations of Compound 1 and Alpelisib. […]

[3] = Pharmacokinetic studies in ICR mice, oral gavage; assay type: in vivo; conditions: same dose
Description: ICR mice, 48, in 6 groups (n=8), were grouped randomly. Compound 1 (Alpelisib-^18O1) and Alpelisib were mixed and adjusted to 1:1 molar ratio in dosing solution (1.25 mg/mL); and the dosing solution was administered to the animals, via oral gavage, at a dose level of 2.5 mg/kg. Blood samples were collected (a group of 8 animals for each time point) at time points, after dosing, at 0.5, 1, 2, 4, 8, and 12 h. The blood samples were converted to plasma samples using standard techniques, and the latter samples were analyzed to determine the concentrations of Compound 1 and Alpelisib. In FIG. 2, lines labelled with -∘- and --Δ-- represent the plasma concentrations of Alpelisib-^18O1 and Alpelisib, respectively, following oral administration of the same dose of Alpelisib-^18O1 and Alpelisib to the animals.

[4] = M4 and M4-18O1 production in liver S9 culture media; assay type: in vitro ADME, monkey, human, mini pig, Wistar rat
Description: Stock solution (50 μL) containing equal molar concentration of Alpelisib and Alpelisib-^18O1 was diluted with pre-warmed (37° C., water bath) 0.1 M Tris-Acetate buffer; and the concentration of each compound in this working solution was 4.5 μM. In each incubation well were added the above working solution (50 μL) and a liver S9 solution (50 μL), mixed well. The sample was pre-incubated for 5 min, following by addition, to each well, of β-NADPH dosing solution (100 μL). The sample plate was incubated at 37° C., and analyzed at time points of 0, 15, 30, 60, and 240 min., in triplicates. Sample analysis: at a pre-set time-point, a stop solution (800 μL, acetonitrile) was added to each well; the sample was well-mixed (Vortex), and centrifuged at 12000 rpm for 5 minutes; the supernatant was transferred to analytical sample vial, and then analyzed with LC-MS/MS, for M4 and M4-^18O1. […] Liver S9 used in the experiment: (a) monkey liver S9, (b) pooled human S9, (c) mini pig liver S9, and (d) male Wistar rat Liver S9.

| SMILES | CLz/F [1] | plasma concentration compared with Alpelisib [2] | plasma concentration compared with Alpelisib [3] | plasma concentration compared with Alpelisib ([1]; oral, same dose) | concentration of the metabolite M4-18O1 compared to that of M4 from alpelisib ([4]; liver S9 (monkey, pooled human, mini pig, male Wistar rat), 37° C., β-NADPH, 0-240 min, equimolar co-incubation) | metabolism compared to that of Alpelisib ([4]; liver S9 incubation, taken together with PK results) |
| --- | --- | --- | --- | --- | --- | --- |
| Cc1nc(NC(=O)N2CCC[C@H]2C(N)=O)sc1-c1ccnc(C(C)(C)C(F)(F)F)c1 [Alpelisib, N-(4-methyl-5-(2-(2,2,2-trifluoro-1,1-dimethylethyl)-4-pyridinyl)-2-thiazolyl)aminocarbonyl-L-prolinamide, reference compound] | 0.41 L/h/kg | – | – | – | – | – |
| Cc1nc(NC(=O)N2CCC[C@H]2C(N)=[18O])sc1-c1ccnc(C(C)(C)C(F)(F)F)c1 [Compound 1, N-(4-methyl-5-(2-(2,2,2-trifluoro-1,1-dimethylethyl)-4 pyridinyl)-2-thiazolyl)aminocarbonyl-L-prolin-^18O-amide] | 0.38 L/h/kg | higher than for Alpelisib | higher than for Alpelisib | higher than for Alpelisib | decreased | reduced |
